Publication PMC12770330 (Scientific Reports, 2025)

How the values were obtained:
α-glucosidase [1] = assay: in vitro kinetic analysis of α-glucosidase inhibition; assay type: biochemical, Saccharomyces cerevisiae
α-glucosidase [2] = assay: α-glucosidase inhibitory assay; assay type: biochemical, Saccharomyces cerevisiae

| Structure (SMILES) | mode of inhibition (α-glucosidase [1]; Km increases, Vmax unchanged) | Ki (α-glucosidase [1]; inhibitor 5.00, 10.00, 20.00 µM, substrate 4-nitrophenyl α-D-glucopyranoside) | α-glucosidase inhibitory activity (in words) (α-glucosidase [2]) |
| --- | --- | --- | --- |
| COc1ccc(NC(=S)NC2c3ccccc3CC2O)cc1 (stereo not drawn) [Compound 2h, 1-(2-hydroxy-2,3-dihydro-1 H-inden-1-yl)-3-(4-methoxyphenyl) thiourea] | competitive | 7.39 ± 0.088 µM | – |
| CCNC(=S)NC1c2ccccc2CC1O (stereo not drawn) [Compound 2d, 1-ethyl-3-(2-hydroxy-2,3-dihydro-1H-inden-1-yl) thiourea] | – | – | inactive |
